Data on five compounds can be found in patent publication US20070293512A1, “Condensed Pyrimidine Deriviative and Xanthine Oxidase Inhibitor” (priority 2004, published 2007).

T1 sequence (P80457 whole entry): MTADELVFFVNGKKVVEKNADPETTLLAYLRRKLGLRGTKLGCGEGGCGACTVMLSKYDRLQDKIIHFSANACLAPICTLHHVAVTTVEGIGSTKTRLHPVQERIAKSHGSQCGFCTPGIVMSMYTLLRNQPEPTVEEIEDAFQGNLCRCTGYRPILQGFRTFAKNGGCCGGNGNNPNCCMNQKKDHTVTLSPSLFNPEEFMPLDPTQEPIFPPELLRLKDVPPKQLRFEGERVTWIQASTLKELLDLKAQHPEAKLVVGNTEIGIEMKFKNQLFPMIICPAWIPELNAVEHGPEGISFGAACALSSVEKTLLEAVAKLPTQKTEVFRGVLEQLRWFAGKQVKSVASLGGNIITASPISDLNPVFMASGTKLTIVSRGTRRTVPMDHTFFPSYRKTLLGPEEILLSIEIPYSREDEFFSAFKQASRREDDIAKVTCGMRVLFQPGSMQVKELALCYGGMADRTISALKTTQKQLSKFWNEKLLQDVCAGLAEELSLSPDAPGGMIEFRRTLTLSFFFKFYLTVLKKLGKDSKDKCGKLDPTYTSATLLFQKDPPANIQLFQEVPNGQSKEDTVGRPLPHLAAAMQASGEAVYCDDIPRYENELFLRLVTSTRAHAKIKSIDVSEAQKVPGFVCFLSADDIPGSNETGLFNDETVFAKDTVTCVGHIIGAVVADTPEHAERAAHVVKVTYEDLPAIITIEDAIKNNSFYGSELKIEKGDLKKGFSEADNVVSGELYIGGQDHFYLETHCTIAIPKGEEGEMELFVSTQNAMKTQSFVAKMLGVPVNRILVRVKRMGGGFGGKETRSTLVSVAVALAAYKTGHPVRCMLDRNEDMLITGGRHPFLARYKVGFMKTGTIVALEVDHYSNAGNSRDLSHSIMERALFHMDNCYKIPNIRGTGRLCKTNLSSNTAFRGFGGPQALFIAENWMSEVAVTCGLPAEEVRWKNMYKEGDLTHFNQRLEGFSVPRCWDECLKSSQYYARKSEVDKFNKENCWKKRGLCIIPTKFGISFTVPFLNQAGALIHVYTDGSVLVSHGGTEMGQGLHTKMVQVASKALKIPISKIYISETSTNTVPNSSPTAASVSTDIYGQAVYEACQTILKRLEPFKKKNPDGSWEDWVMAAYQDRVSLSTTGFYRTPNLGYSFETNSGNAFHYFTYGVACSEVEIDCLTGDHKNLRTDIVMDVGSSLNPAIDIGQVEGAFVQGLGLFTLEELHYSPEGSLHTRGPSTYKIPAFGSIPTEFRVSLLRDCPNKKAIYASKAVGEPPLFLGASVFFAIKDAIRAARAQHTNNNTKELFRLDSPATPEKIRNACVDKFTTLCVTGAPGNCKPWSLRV

Tested on in one data set: not given
Assay: not given
Conditions: not given
Usually melting point stands for the temperature, or range, at which the solid turns liquid. Regarding `O=[N+]([O-])c1cc(-c2nc3c(O)ncnc3s2)ccc1Oc1ccc(Cl)cc1` [Example 5, 2-[4-(4-Chlorophenoxy)-3-nitrophenyl]-4-hydroxythiazolo[5,4-d]pyrimidine], the melting point is 304 to 306 °C (dec.).

As for `O=[N+]([O-])c1cc(-c2nc3c(O)ncnc3s2)ccc1Oc1ccccc1Cl` [Example 18, 2-[4-(2-Chlorophenoxy)-3-nitrophenyl]-4-hydroxythiazolo[5,4-d]pyrimidine], the melting point was 283 to 288 °C (dec.).

`O=[N+]([O-])c1cc(-c2nc3c(O)ncnc3s2)ccc1Oc1cccnc1` [Example 32, 4-Hydroxy-2-[3-nitro-4-(3-pyridyloxy)-phenyl]thiazolo[5,4-d]pyrimidine]: the melting point is 276 to 280 °C (dec.).

On to `O=[N+]([O-])c1cc(-c2nc3c(O)ncnc3s2)ccc1Oc1cccc(F)c1` [Example 20, 2-[4-(3-Fluorophenoxy)-3-nitrophenyl]-4-hydroxythiazolo[5,4-d]pyrimidine], for which the melting point is 279 to 281 °C (dec.).

Consider `O=[N+]([O-])c1cc(-c2nc3c(O)ncnc3s2)ccc1Oc1ccc(F)cc1` [Example 12, 2-[4-(4-Fluorophenoxy)-3-nitrophenyl]-4-hydroxythiazolo[5,4-d]pyrimidine], for which the melting point was 282 to 284 °C (dec.).

A further data set concerns the target T1, Cow milk Xanthine Oxidase (Bos taurus, UniProt P80457).
T1 construct: Cow milk Xanthine Oxidase (Roche); purchased Roche; host or cells: cow milk (natural source)
Put plainly: Xanthine oxidase inhibition, in vitro (oxidation of xanthine, absorbance at 290 nm). Type of data set: biochemical. The conditions noted are these: xanthine 250 μM, 50 mM phosphate buffer pH 7.5, 30° C., 10 minutes. The protocol: The xanthine oxidase inhibiting action (in vitro test) of the compound of the invention was confirmed by measuring inhibition of oxidation of xanthine by xanthine oxidase, as described in Example 50. As is clear from Tables 11 and 12, the compounds of the invention show excellent xanthine oxidase inhibiting action.
Pharmacological Experiment 1 (In Vitro Measuring Method)
1. Preparation of Test Sample
The test compound was dissolved in dimethylsulfoxide and diluted with 50 mM phosphate buffer (pH 7.5), to give a solution of a predetermined concentration.
125 μL of each of the solutions of the test compound having different concentrations was added to 1 mL of a solution of Xanthine (SIGMA, 250 μM) in the 50 mM phosphor buffer (pH 7.5). The mixture was then pre-incubated at 30° C. for 5 min. Subsequently, to the pre-incubated mixture was added 125 μL of Cow milk Xanthine Oxidase (Roche) diluted with the 50 mM phosphate buffer (pH 7.5) to 70 mU/mL, and the mixture was subjected to reaction at 30° C. for 10 minutes. Then, 1N hydrochloric acid, (200 μL) was added to the reaction mixture to terminate the reaction. Subsequently, absorbance at OD 290 nm was measured by means of a spectrophotometer (Shimadzu UV-160A)., to obtain a inhibition ratio. The measured inhibition ration was used to obtain […]
The inhibition ratio was calculated according to the following formula: Inhibition ratio (%)=[1−(B−C)/(A−C)]×100 • A: absorbance of control • B: absorbance measured on a sample containing test compound • C: absorbance of blank (Test Results)
What is called IC50 is the concentration needed to halve the response being measured. With `O=[N+]([O-])c1cc(-c2nc3c(O)ncnc3s2)ccc1Oc1ccc(Cl)cc1` [Example 5, 2-[4-(4-Chlorophenoxy)-3-nitrophenyl]-4-hydroxythiazolo[5,4-d]pyrimidine], the half-inhibitory concentration (IC50) turned out to be 20.2 nM.

In turn, `O=[N+]([O-])c1cc(-c2nc3c(O)ncnc3s2)ccc1Oc1ccccc1Cl` [Example 18, 2-[4-(2-Chlorophenoxy)-3-nitrophenyl]-4-hydroxythiazolo[5,4-d]pyrimidine] had a half-maximal inhibitory concentration (IC50) of 8 nM.

With `O=[N+]([O-])c1cc(-c2nc3c(O)ncnc3s2)ccc1Oc1cccnc1` [Example 32, 4-Hydroxy-2-[3-nitro-4-(3-pyridyloxy)-phenyl]thiazolo[5,4-d]pyrimidine], half-maximal inhibition (IC50) was put at 9.2 nM.

The compound `O=[N+]([O-])c1cc(-c2nc3c(O)ncnc3s2)ccc1Oc1cccc(F)c1` [Example 20, 2-[4-(3-Fluorophenoxy)-3-nitrophenyl]-4-hydroxythiazolo[5,4-d]pyrimidine] came in with an IC50 of 10.2 nM.

For `O=[N+]([O-])c1cc(-c2nc3c(O)ncnc3s2)ccc1Oc1ccc(F)cc1` [Example 12, 2-[4-(4-Fluorophenoxy)-3-nitrophenyl]-4-hydroxythiazolo[5,4-d]pyrimidine], 9.3 nM corresponded to half-maximal inhibition (IC50).
